System: human T lymphocytes
Test: PHA-induced lymphocyte proliferation (3H-TdR incorporation)
Type: cell-based
Details: compared with 18:1ω9, 18:0 and 18:2; preliminary studies (FIG. 24)
Protocol: Lymphocyte proliferation was measured by a semi-automated microtechnique (12). Human mononuclear cells (2×10^5) were seeded into u-bottomed wells of a micro-titre plate (50 μl) and treated with 500 of the ethanol emu oil fraction. After 30 min incubation, […] PHA was added to stimulate the T lymphocytes. The cells were incubated for 72 h at 37° C. in an atmosphere of 5% CO2-air and high humidity. At 6 h prior to harvest, the cultures were pulsed with 1 μCi of ^3H-TdR. The cells were harvested and the amount of radioactivity incorporated measured in a liquid scintillation counter.
Makin emu oil was subjected to solubility in ethanol. This ethanol soluble oil fraction was then tested for ability to depress proliferation of mitogen stimulated human lymphocytes. The mononuclear cells were isolated from peripheral blood and pretreated for 30 min with dilutions of the fraction and then challenged with phytohaemagglutinin (PHA). Proliferation of lymphocytes was measured after 48 hours using ^3H-TdR incorporation as a marker for DNA synthesis.

CCCCC/C=C\C/C=C\CCCCCCCC(=O)O [18:2ω6, Linoleic acid (18:2ω6)]
inhibition of T lymphocyte and mononuclear cell responses by fatty acids: strongly inhibitory

— patent publication US20050123479A1, “Therapeutic properties of oils” (priority 2002, published 2005)
